Test results: publication PMC11124870, “Effect of Antioxidants in Medicinal Products on Intestinal Drug Transporters” (Pharmaceutics, 2024)
“And” between values parts separate entries of the source, which are not always exact repeats. Identical values can stand only once.

How the values were obtained:
OATP2B1 = biological target: T1, OATP2B1 (Homo sapiens, UniProt O94956); assay: 3H-valsartan uptake inhibition in HEK-293-OATP2B1 cells; settings: read-out: IC50 OATP2B1, valsartan uptake, substrate 3H-valsartan, three independent experiments
T1 sequence (O94956 1-709): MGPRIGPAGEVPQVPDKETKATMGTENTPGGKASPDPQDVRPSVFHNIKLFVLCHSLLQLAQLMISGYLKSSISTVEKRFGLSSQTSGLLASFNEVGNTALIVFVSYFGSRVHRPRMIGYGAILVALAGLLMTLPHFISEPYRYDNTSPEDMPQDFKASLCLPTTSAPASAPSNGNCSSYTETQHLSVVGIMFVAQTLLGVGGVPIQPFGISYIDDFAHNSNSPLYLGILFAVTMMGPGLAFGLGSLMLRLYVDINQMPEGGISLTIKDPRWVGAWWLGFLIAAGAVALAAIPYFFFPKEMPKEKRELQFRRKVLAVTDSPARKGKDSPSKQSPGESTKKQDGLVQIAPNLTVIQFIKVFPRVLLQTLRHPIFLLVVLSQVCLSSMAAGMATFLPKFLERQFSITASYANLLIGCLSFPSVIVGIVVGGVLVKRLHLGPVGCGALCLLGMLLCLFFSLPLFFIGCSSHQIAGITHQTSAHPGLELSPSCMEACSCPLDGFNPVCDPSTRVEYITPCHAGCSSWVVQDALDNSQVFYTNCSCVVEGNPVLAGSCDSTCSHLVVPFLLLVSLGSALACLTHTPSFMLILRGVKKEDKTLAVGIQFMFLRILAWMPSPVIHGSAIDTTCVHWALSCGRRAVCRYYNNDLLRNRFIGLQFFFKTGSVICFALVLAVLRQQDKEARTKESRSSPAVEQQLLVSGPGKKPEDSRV
Description: The uptake transporter assay was performed as reported previously with minor modifications [15]. A day before the uptake assay, Isoplate 96-well plates were coated with poly-D-lysine in PBS with calcium and magnesium and washed with PBS. […] An assay mixture of ^3H-estrone sulfate, a known inhibitor of OATP2B1, or an antioxidant was prepared and incubated in a 37 °C incubator for 10 min. The cells were washed with ice-cold HBSS three times and incubated with MicroScint fluid on a shaker for 1 h for cell lysis. Radioactivity was measured by liquid scintillation counting with a MicroBeta^2® microplate counter. […] On the day of experiment, cells were washed twice with 0.4 mL of HBSS per well and then pre-incubated for 10–20 min in 0.4 mL of HBSS. […] Uptake of ^3H-valsartan was stopped after 15 min by washing three times with ice-cold HBSS. Cells were lysed in 750 µL of lysis buffer (0.1 N NaOH and 0.1% SDS in double-distilled water) per well while shaking for 60 min. A total of 690 µL of the lysate from each well was then added to 2.5 mL of EcoLite scintillation fluid. The radioactivity was determined on a LS6500 Scintillation Counter (Beckman Coulter). Protein concentration was measured with a Pierce™ BCA protein assay kit. The radioactivity in each well was corrected for protein concentration. All values were determined in triplicate, and the final values are expressed as % uptake relative to negative control (1% DMSO).
Antioxidants were screened at a concentration of 200 μM.

[1] = tested on: MDCK cell tight junctions; assay: Lucifer yellow permeability assay of MDCK monolayer integrity; assay type: cell-based; settings: BHA 250 µM
Description: The transport assay was performed using MDCK-hMDR1-cMDR1-KO, MDCK-cMDR1-KO, and MDCK-hBCRP-cMDR1-KO as reported previously with minor modifications [14, 27]. In brief, 133,000 cells were seeded onto a Transwell membrane insert, a semipermeable polyethylene terephthalate membrane. During the differentiation process, the medium volume in the apical chamber was kept at 300 μL, while the basal chamber contained 1000 μL. The cells were allowed to differentiate for 7–9 days at 37 °C in a humidified incubator with 5% CO2. Before starting transporter assays, the integrity of the cell monolayer was checked using lucifer yellow permeability assays. Cells were washed twice with HBSS, lucifer yellow (0.1 mg/mL) in HBSS was added to the apical chamber, and the basal chamber was filled with fresh HBSS. The assembled plate was then incubated at 37 °C for 1 h. From the basal chamber, 100 μL samples were collected for fluorescence measurements using GloMax® Explorer with a 475 nm excitation filter and a 500–550 nm emission filter to calculate the percent permeability per well.
At the end of the transport assay, a lucifer yellow permeability assay was performed as described earlier.

BCRP = biological target: T2, BCRP (Homo sapiens, UniProt Q9UNQ0); assay: Vesicular transport assay, 3H-CCK8 uptake in BCRP membrane vesicles; assay type: biochemical; design: purchased ThermoFisher Scientific GM0008; host or cells: Sf9 membrane vesicles
T2 sequence (Q9UNQ0 1-655): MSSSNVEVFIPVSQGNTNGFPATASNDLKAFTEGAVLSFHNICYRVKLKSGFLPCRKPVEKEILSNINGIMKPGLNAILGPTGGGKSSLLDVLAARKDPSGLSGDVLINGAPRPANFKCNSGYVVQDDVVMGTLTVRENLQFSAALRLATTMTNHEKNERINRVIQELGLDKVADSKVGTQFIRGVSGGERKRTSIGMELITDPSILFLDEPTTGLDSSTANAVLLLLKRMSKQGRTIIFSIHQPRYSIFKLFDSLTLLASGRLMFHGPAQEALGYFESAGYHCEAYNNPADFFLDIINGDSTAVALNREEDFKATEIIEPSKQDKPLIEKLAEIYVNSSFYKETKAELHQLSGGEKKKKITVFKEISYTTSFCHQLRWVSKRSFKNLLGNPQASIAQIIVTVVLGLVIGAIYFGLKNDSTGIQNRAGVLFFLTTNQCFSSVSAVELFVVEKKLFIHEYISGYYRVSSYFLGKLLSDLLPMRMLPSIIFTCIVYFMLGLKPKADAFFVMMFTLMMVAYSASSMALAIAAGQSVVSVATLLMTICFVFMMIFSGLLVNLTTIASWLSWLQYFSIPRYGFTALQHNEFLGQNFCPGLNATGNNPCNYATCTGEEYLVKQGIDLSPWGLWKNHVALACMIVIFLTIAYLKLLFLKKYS
Description: The vesicular transport assay was performed using Spodoptera frugiperda 9 (Sf9) membrane vesicles overexpressing human P-gp or BCRP, as reported previously with minor modifications. In brief, Isoplate 96-well flat-bottom white plates were preincubated with HBSS containing 0.5 mg/mL BSA on an orbital shaker in a 37 °C incubator at 90 rpm for 60 min followed by washing with HBSS. The assay mixture (75 µL/well) contained a probe substrate and either vehicle control, a known inhibitor of P-gp or BCRP, or an antioxidant, in vesicle uptake buffer (50 mM MOPS-Tris, pH 7.0 + 70 mM KCl + 7.5 mM MgCl2) prewarmed to 37 °C. After addition of the assay mixture, 5 μL/well (5 μg/μL stock concentration of the vesicles) of vesicles overexpressing human P-gp or BCRP was added. Uptake assays were initiated by adding 20 μL of either 25 mM adenosine triphosphate (ATP) or 25 mM adenosine monophosphate (AMP) to a final concentration of 5 mM. Plates were incubated at 37 °C for 20 min with orbital shaking (90 rpm). After 20 min, the uptake was quenched by adding 150 μL of ice-cold wash buffer (40 mM MOPS-Tris, pH 7.0 + 70 mM KCl) to each well, and the mixture was transferred to a 96-well filtration plate. Vacuum was applied, and the vesicles were washed three times with wash buffer. Vesicles were then lysed with 100 µL of MicroScint-20.

## COc1ccc(O)cc1C(C)(C)C [Butylated hydroxyanisole (BHA), 2-tert-Butyl-4-hydroxyanisole]
OATP2B1
  IC50: 19 µM and 19.1 µM
[1]
  Effect on MDCK cell tight junctions (lucifer yellow permeability): disrupted MDCK cell tight junctions
BCRP; 200 µM, 3H-CCK8
  Inhibition of BCRP: at least 50%
BCRP; antioxidant 200 µM, uptake with DMSO set as 100%, mean ± SD, three replicates, membrane vesicles
  % Uptake of 3H-CCK8 BCRP: 46.7 ± 5.5%
BCRP; substrate 3H-CCK8, mean ± SD of three independent experiments
  IC50: 206 ± 14 µM
